ChEMBL document CHEMBL4325834, “De Novo Molecular Design of a Novel Octapeptide That Inhibits In Vivo Melanogenesis and Has Great Transdermal Ability” (J Med Chem, 2018)
Activity calls are given as the source filed them. No cut-off for these calls is given here. Where a SMILES comes first, the peptide text is derived from it.

What was measured:
LAD2 [1] = assay: (§1) Proinflammatory activity in human LAD2 cells assessed as increase in mast-cell degranulation by measuring beta-hexosaminidase release at 0.25 mM preincubated for 30 mins followed 4-nitrophenyl-N-acetyl-beta-D-glucosaminide substrate addition and measured after 90 mins by fluorescence-based microplate reader analysis relative to control; format: ADME; conditions: lad2, 1.5 h, 250 µM
Cavia porcellus [2] = assay: Protection against UVB-induced pigmentation in Dunkin-Hartley guinea pig assessed as increase in whitening at 1 to 2 mM using PG solvent administered topically post UV radiation for 5 days/week for two consecutive weeks for a total 10 days by Fontana-Masson-staining based assay; format: functional, organism-based
B16 = assay: Downregulation of MITF protein expression in mouse B16 cells after 72 hrs by Western blot analysis; format: functional, cell-based
Cavia porcellus [3] = assay: Prophylactic protection against UVB-induced pigmentation in Dunkin-Hartley guinea pig pigmentation model assessed as increase in whitening administered topically 6 hrs before UV radiation every day for 2 weeks; format: functional, organism-based
[4] = biological target: T1, Tyrosinase (Mus musculus) (UniProt P11344); assay: Inhibition of TYR activity in mouse B16 cells assessed as increase in whitening at 20 uM preincubated for 72 hrs followed L-dopa substrate addition and measured after 4 hrs by fluorescence microscopy; format: cell-based
T1 sequence (whole entry): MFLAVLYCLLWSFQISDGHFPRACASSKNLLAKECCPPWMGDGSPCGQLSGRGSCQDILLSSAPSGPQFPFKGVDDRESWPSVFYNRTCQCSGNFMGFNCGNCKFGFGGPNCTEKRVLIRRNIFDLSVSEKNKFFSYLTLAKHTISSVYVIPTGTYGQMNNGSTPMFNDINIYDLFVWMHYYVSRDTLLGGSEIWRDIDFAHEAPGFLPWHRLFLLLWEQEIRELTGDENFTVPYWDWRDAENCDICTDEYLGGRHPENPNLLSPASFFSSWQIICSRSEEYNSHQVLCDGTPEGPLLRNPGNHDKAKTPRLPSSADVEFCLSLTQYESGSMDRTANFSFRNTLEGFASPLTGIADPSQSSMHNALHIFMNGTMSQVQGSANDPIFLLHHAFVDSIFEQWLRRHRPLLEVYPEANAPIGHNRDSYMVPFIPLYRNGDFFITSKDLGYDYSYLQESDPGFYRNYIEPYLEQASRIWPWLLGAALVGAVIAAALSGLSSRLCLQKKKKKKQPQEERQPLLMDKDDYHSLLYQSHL

[5] = Antioxidant activity assessed as DPPH free radical scavenging activity at 80 uM after 30 mins relative to control; format: functional
Cavia porcellus [6] = assay: Protection against UVB-induced pigmentation in Dunkin-Hartley guinea pig assessed as increase in whitening at 1 to 2 mM using CP hydrogel administered topically post UV radiation for 5 days/week for two consecutive weeks for a total 10 days by Fontana-Masson-staining based assay; format: functional, organism-based
[7] = biological target: T1, Tyrosinase (Mus musculus); assay: Inhibition of TYR activity in mouse B16 cells assessed as reduction in melanin levels at 20 uM after 24 hrs by spectrophotometric analysis relative to control; format: cell-based
LAD2 [8] = assay: as §1, with “0.125” for “0.25”; format: ADME; conditions: lad2, 1.5 h, 125 µM
[9] = biological target: T1, Tyrosinase (Mus musculus); assay: Inhibition of TYR activity in mouse B16 cells assessed as effect on pallet after exfoliation at 20 uM preincubated for 72 hrs followed L-dopa substrate addition and measured after 4 hrs by fluorescence microscopy; format: cell-based
LAD2 [10] = assay: as §1, with “1” for “0.25”; format: ADME; conditions: lad2, 1.5 h, 1000 µM
Mus musculus = species on record: Mus musculus; assay: Effect on JNK phosphorylation in mouse B16 cells up to 80 uM after 72 hrs by Western blot analysis; format: cell-based

- Activity (LAD2 [1]): 7.19%
- inhibition [4]: Active
- inhibition [7]: Active
- Activity (LAD2 [8]): 3.87%
- Activity [9]: Active
- Activity (LAD2 [10]): 9.41%
SMILES: CC(C)[C@H](NC(=O)[C@H](CCCNC(=N)N)NC(=O)[C@H](Cc1ccccc1)NC(=O)[C@H](CS)NC(=O)[C@H](CCCNC(=N)N)NC(=O)[C@@H](N)[C@@H](C)O)C(=O)N[C@@H](CS)C(=O)N[C@@H](CO)C(=O)O (H-TRCFRVCS-OH)
- Activity (Cavia porcellus [2]): Active
- inhibition (B16): Active
- Activity (Cavia porcellus [3]): Dose-dependent effect
- Activity [5]: 97%
- Activity (Cavia porcellus [6]): Active
- Activity (Mus musculus): inactive
